From US5705524A, “Thiepane compounds” (Gilead Sciences, Inc., priority 1995, dated 1998)
Where two headings read alike, the source gives them in different places.

Key:
HIV protease = biological target: T1, HIV protease (Human immunodeficiency virus type 1 group M subtype B, UniProt P04585); experiment: biochemical
T1 construct: measurement of HIV-protease (HIV-PR) activity
Procedure: Compositions to be subjected to enzyme assay are lyophilited and diluted in DMSO to 100-1000 μM. Compositions having apparent IC50 <1 μm are diluted to 100 μM.
The assay is a fluorometric method for measurement of HIV-protease (HIV-PR) activity utilizing a synthetic peptide substrate for HIV-PR based on that described by Matayoshi, E. D.; Wang, G. T.; Krafft, G. A.; and Erickson, J. W.; Science, 1990, 247, 954-958; and Wang, G. T.; Huffker, J. A.; Matayoshi, E.; and Krafft, G. A.; Tetrahedron Lett., 1990, 165, 6493-6496.
1.0 mM ethylenediaminetetraacetic acid (EDTA)
1.0 mM dithiothreitol (DTT)
10% dimethyl sulfoxide (DMSO)
1 mg/mL bovine serum albumin (BSA) adjusted to pH 4.7
1. Prepare a solution of 2 μM HIV Protease Substrate 1 in the Assay Buffer.
2. Dispense the substrate solution into UV-pass fluorescence cuvettes (1 cm pathlength).
3. Set the excitation and emission monochromators of the spectrofluorimeter to 340 nm and 490 nm, respectively. To obtain the same kinetic constants as reported, cuvettes should be held at 37° C. throughout the assay.
4. Begin each assay by adding a small amount (<3% of the final volume) of HIV-PR-containing solution diluted tin the Assay Buffer.
5. Measure the initial rate of cleavage of fluorogenic substrate by monitoring the increase in fluorescence signal at 490 nm for 5-8 min at 37° C.
(§1) The apparent IC50 and IC50 values reported below in Table 25 were determined using the assays of Example 34 and 35, respectively. The values are indicated as follows: +=10-50 μM, ++2-10 μM, and +++<2 μM.

HIV IIIB = experiment: XTT Cell Culture Assay, cells infected with HIV IIIB (Example 35); assay type: cell-based; conditions: read-out: Cell Culture IC50
Procedure: The method of Weislow, O. S.; Kiser, R.; Fine, D. L.; Bader, J.; Shoemaker, R. H.; and Boyd, M. R.; J. Nat. Cancer Institute, 1989, 81(8) 577-586 was applied with the following minor modifications: Infection of cells with HIV IIIB was performed without polybrene. Cells were distributed to Microtiter wells containing the compound of the invention 4 h after infection with HIV IIIB. 2×XTT was added at 5-6 days post infection. 20 μl 2% Triton X-100 was added 1 hour after XTT addition.
1. Add 4 ml of XTT (5 mg/ml) to 8 ml of Deficient RPMI medium (no phenol red, no serum). Mix briefly at 45° C. to dissolve XTT.
2. Add 800 μl of PMS (0.2 mg/ml) to XTT/RPMI mixture.
3. Remove 100 μl of cell free media from each well of a 96 well plate and replace with 100 μl of the XTT/PMS mixture.
4. Incubate at 37° C. for 1.5-2 h.
5. Read absorbance at 450 nm. Absorbance values are directly proportional to cell viability.
as §1

[1] = fluorogenic peptide substrate, 37° C., pH 4.7, read-out: Apparent Enzyme IC50
[2] = Human immunodeficiency virus 1, IIIB, HIV IIIB infected cells, XTT at 5-6 days post infection
[3] = HIV IIIB infected cells, XTT at 5-6 days post infection
[4] = Apparent Enzyme IC50, fluorogenic peptide substrate, 37° C., pH 4.7
[5] = Human immunodeficiency virus 1, IIIB

Compound	IC50 (HIV protease; [1]) [nM]	IC50 (HIV IIIB; [2]) [nM]	other results
[O-][S@+]1C[C@H](OCc2ccccc2)[C@H](O)[C@@H](O)[C@@H](OCc2ccccc2)[C@H]1Cc1ccccc1 [107/3]	2000 to 10000	–	–
[O-][S@@+]1C[C@H](OCc2ccccc2)[C@H](O)[C@@H](O)[C@@H](OCc2ccccc2)[C@H]1Cc1ccccc1 [107/4]	2000 to 10000	10000 to 50000	–
O=S1(=O)C[C@H](OCc2ccccc2)[C@H](O)[C@@H](O)[C@@H](OCc2ccccc2)[C@H]1Cc1ccccc1 [107/5]	< 2000	10000 to 50000	–
N#Cc1ccccc1O[C@@H]1[C@H](O)[C@@H](O)[C@@H](Oc2ccccc2C#N)CS(=O)(=O)[C@@H]1Cc1ccccc1 [107/10]	2000 to 10000	–	–
N#Cc1ccc(O[C@@H]2[C@H](O)[C@@H](O)[C@@H](Oc3ccc(C#N)cc3)CS(=O)(=O)[C@@H]2Cc2ccccc2)cc1 [107/15]	2000 to 10000	–	–
O=S1(=O)[C@H](Cc2ccccc2)[C@H](OCc2ccccc2)[C@H](O)[C@@H](O)[C@@H](OCc2ccccc2)[C@H]1Cc1ccccc1 [108/5]	–	< 2000	–
[O-][S@@+]1[C@H](Cc2ccccc2)[C@H](OCc2ccccc2)[C@H](O)[C@@H](O)[C@@H](OCc2ccccc2)[C@@H]1Cc1ccccc1 [108/17]	2000 to 10000	2000 to 10000	–
O=S1(=O)[C@H](Cc2ccccc2)[C@H](OCc2ccccc2)[C@H](O)[C@@H](O)[C@@H](OCc2ccccc2)[C@@H]1Cc1ccccc1 [108/18]	< 2000	10000 to 50000	–
CC1(C)O[C@@H]2[C@@H](O1)[C@@H](OCc1ccccn1)[C@@H](Cc1ccccc1)S(=O)(=O)[C@H](Cc1ccccc1)[C@@H]2OCc1ccccn1 [120/6]	< 2000	2000 to 10000	–
O=S1(=O)[C@H](Cc2ccccc2)[C@H](OCc2ccncc2)[C@H](O)[C@@H](O)[C@@H](OCc2ccncc2)[C@H]1Cc1ccccc1 [120/19]	< 2000	–	–
O=S1(=O)[C@H](Cc2ccccc2)[C@H](OCc2cncs2)[C@H](O)[C@@H](O)[C@@H](OCc2cncs2)[C@H]1Cc1ccccc1 [120/25]	–	< 2000	IC50 (HIV protease; read-out: Apparent Enzyme IC50): < 2000 nM
O=S1(=O)[C@H](Cc2ccccc2)[C@H](Oc2ccccn2)[C@H](O)[C@@H](O)[C@@H](Oc2ccccn2)[C@H]1Cc1ccccc1 [120/28]	< 2000	–	–
Cc1cccc(CO[C@@H]2[C@H](O)[C@@H](O)[C@@H](OCc3cccc(C)c3)[C@@H](Cc3ccccc3)S(=O)(=O)[C@@H]2Cc2ccccc2)c1 [120/31]	< 2000	< 2000	–
COc1cccc(CO[C@@H]2[C@H](O)[C@@H](O)[C@@H](OCc3cccc(OC)c3)[C@@H](Cc3ccccc3)S(=O)(=O)[C@@H]2Cc2ccccc2)c1 [120/34]	< 2000	< 2000	–
O=S1(=O)[C@H](Cc2ccccc2)[C@H](OCc2cccc(Br)c2)[C@H](O)[C@@H](O)[C@@H](OCc2cccc(Br)c2)[C@H]1Cc1ccccc1 [120/37]	< 2000	–	–
O=S1(=O)[C@H](Cc2ccccc2)[C@H](OCc2cccc(O)c2)[C@H](O)[C@@H](O)[C@@H](OCc2cccc(O)c2)[C@H]1Cc1ccccc1 [120/41]	< 2000	–	–
O=[N+]([O-])c1cccc(CO[C@@H]2[C@H](O)[C@@H](O)[C@@H](OCc3cccc([N+](=O)[O-])c3)[C@@H](Cc3ccccc3)[S+]([O-])[C@@H]2Cc2ccccc2)c1 (stereo partly shown) [120/44]	–	–	IC50 (HIV protease; [4]): < 2000 nM; IC50 (HIV IIIB; [5]): < 2000 nM
O=[N+]([O-])c1cccc(CO[C@@H]2[C@H](O)[C@@H](O)[C@@H](OCc3cccc([N+](=O)[O-])c3)[C@@H](Cc3ccccc3)S(=O)(=O)[C@@H]2Cc2ccccc2)c1 [120/45]	–	–	IC50 (HIV protease; [4]): < 2000 nM; IC50 (HIV IIIB; [5]): < 2000 nM
Nc1cccc(CO[C@@H]2[C@H](O)[C@@H](O)[C@@H](OCc3cccc(N)c3)[C@@H](Cc3ccccc3)S(=O)(=O)[C@@H]2Cc2ccccc2)c1 [120/46]	< 2000	< 2000	–

The next lines start with results.

IC50 (HIV protease; [1]) [nM]	IC50 (HIV IIIB; [2]) [nM]	Compound	other results
10000 to 50000	–	O[C@@H]1[C@@H](O)[C@@H](OCc2ccccc2)CS[C@H](Cc2ccccc2)[C@@H]1OCc1ccccc1 [107/2]	–
2000 to 10000	–	N#Cc1ccc(O[C@@H]2[C@H](O)[C@@H](O)[C@@H](Oc3ccc(C#N)cc3)CS[C@@H]2Cc2ccccc2)cc1 [107/12]	–
< 2000	–	[O-][S+]1[C@H](Cc2ccccc2)[C@H](OCc2ccccc2)[C@H](O)[C@@H](O)[C@@H](OCc2ccccc2)[C@H]1Cc1ccccc1 (stereo partly shown) [108/4]	IC50 (HIV IIIB; [3]): < 2000 nM
< 2000	< 2000	O=S1(=O)[C@H](Cc2ccccc2)[C@H](OCc2ccccc2)[C@H](O)[C@@H](O)[C@H](OCc2ccccc2)[C@H]1Cc1ccccc1 [108/21]	–
10000 to 50000	10000 to 50000	O=S1(=O)[C@@H](Cc2ccccc2)[C@@H](OCc2ccccc2)[C@@H](O)[C@H](O)[C@H](OCc2ccccc2)[C@@H]1Cc1ccccc1 [108/27]	–
< 2000	–	[O-][S+]1[C@H](Cc2ccccc2)[C@H](OCc2ccccc2)[C@H](O)[C@@H](O)[C@@H](OCc2ccccc2)[C@H]1Cc1ccccc1 (stereo partly shown) [120/3]	IC50 (HIV IIIB; [3]): 10000 to 50000 nM
< 2000	2000 to 10000	CC1(C)O[C@@H]2[C@@H](O1)[C@@H](OCc1cccc[n+]1[O-])[C@@H](Cc1ccccc1)S(=O)(=O)[C@H](Cc1ccccc1)[C@@H]2OCc1ccccn1 [120/7]	–
< 2000	< 2000	O=S1(=O)[C@H](Cc2ccccc2)[C@H](OCc2cccnc2)[C@H](O)[C@@H](O)[C@@H](OCc2cccnc2)[C@H]1Cc1ccccc1 [120/15]	–
< 2000	< 2000	O=S1(=O)[C@H](Cc2ccccc2)[C@H](OCc2cccnc2)[C@H](O)[C@@H](O)[C@@H](OCc2ccc[n+]([O-])c2)[C@H]1Cc1ccccc1 [120/16]	–
< 2000	10000 to 50000	Cc1nc(CO[C@@H]2[C@H](O)[C@@H](O)[C@@H](OCc3csc(C)n3)[C@@H](Cc3ccccc3)S(=O)(=O)[C@@H]2Cc2ccccc2)cs1 [120/22]	–
< 2000	–	O=S1(=O)[C@H](Cc2ccccc2)[C@H](OCc2cccc(OCc3ccccc3)c2)[C@H](O)[C@@H](O)[C@@H](OCc2cccc(OCc3ccccc3)c2)[C@H]1Cc1ccccc1 [120/40]	–
